The values below come from PubChem BioAssay AID1259411 (Chemical Carcinogenesis Research Information System (CCRIS), 2018).

The source made the active and inactive calls. No rule for the calls is given here.

The data set concerns rodent carcinogenicity bioassays, tumor incidence. Nature of the data set: CCRIS carcinogenicity studies. The gist of the method: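 NCI-built, expert-reviewed records of carcinogenicity and related test outcomes (mutagenicity, tumor promotion/inhibition) compiled from published and report sources, historical span 1985-2011, not updated.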

For `C#CCO`, the carcinogen call (Species: Mouse, Strain/Sex: B6C3F1/Female (50/Group), Route: Inhalation, Dose: 0, 8, 16, 32 ppm for 6 hr plus 14 min per d, 5 d per wk for 105 wk (Study duration: 105 wk), Dose: 0, 8, 16, 32 ppm for 6 hr plus 14 min per d, 5 d per wk for 105 wk (Study duration: 105 wk), Tumor Site: Type of Lesion: Respiratory epithelium: Adenoma (0/50; 2/50; 4/50; 6/50)) is “active; positive. conclusions of authors: some evidence of carcinogenic activity”; the carcinogen call (Species: Mouse, Strain/Sex: B6C3F1/Male (50/Group), Route: Inhalation, Dose: 0, 8, 16, 32 ppm for 6 hr plus 14 min per d, 5 d per wk for 105 wk (Study duration: 105 wk), Dose: 0, 8, 16, 32 ppm for 6 hr plus 14 min per d, 5 d per wk for 105 wk (Study duration: 105 wk), Tumor Site: Type of Lesion: Respiratory epithelium: Adenoma (0/49; 1/50; 4/50; 7/50), Harderian gland (3/50; 10/50; 6/50; 11/50), Tumor Site: Type of Lesion: Respiratory epithelium: Adenoma (0/49; 1/50; 4/50; 7/50), Harderian gland (3/50; 10/50; 6/50; 11/50)) is “active; positive. conclusions of authors: some evidence of carcinogenic activity based o”; the carcinogen call (Species: Rat, Strain/Sex: F344/N / Female (50/Group), Route: Inhalation, Dose: 0, 16, 32, 64 ppm for 6 hr plus 14 min per d, 5 d per wk for 105 wk (Study duration: 105 wk), Dose: 0, 16, 32, 64 ppm for 6 hr plus 14 min per d, 5 d per wk for 105 wk (Study duration: 105 wk), Tumor Site: Type of Lesion: None) was “inactive; negative. conclusions of authors: no evidence of carcinogenic activity”; the carcinogen call (Species: Rat, Strain/Sex: F344/N / Male (50/Group), Route: Inhalation, Dose: 0, 16, 32, 64 ppm for 6 hr plus 14 min per d, 5 d per wk for 105 wk (Study duration: 105 wk), Dose: 0, 16, 32, 64 ppm for 6 hr plus 14 min per d, 5 d per wk for 105 wk (Study duration: 105 wk), Tumor Site: Type of Lesion: Respiratory epithelium: Adenoma (0/49; 0/49; 0/50; 3/49)) was “inactive; negative (although incidence at highest dose exceeded historical controls). con”.
Take `O=NN1CCCC[C@H]1c1cccnc1`: the carcinogen call (Species: MOUSE, Strain/Sex: STRAIN-A/FEMALE, Route: INTRAPERITONEAL, Dose: 0, 100 UMOL TOTAL DOSE ADMINISTERED IN SUBDOSES 3/WK FOR 7 WK (STUDY DURATION: 37 WK), Tumor Site: Type of Lesion: LUNG: TUMOR) is “active; positive”.
As to `O=C(O)c1cc(Oc2ccc(C(F)(F)F)cc2Cl)ccc1[N+](=O)[O-]`, the carcinogen call reads like this: (Species: MOUSE, Strain/Sex: B6C3F1/FEMALE, Route: ORAL, Dose: 0, 625, 1250, 2500 PPM IN DIET FOR 18 MO (STUDY DURATION: 18 MO), Dose: 0, 625, 1250, 2500 PPM IN DIET FOR 18 MO (STUDY DURATION: 18 MO), Tumor Site: Type of Lesion: LIVER: ADENOMA, CARCINOMA, STOMACH: PAPILLOMA) “active; positive”; (Species: MOUSE, Strain/Sex: B6C3F1/MALE, Route: ORAL, Dose: 0, 625, 1250, 2500 PPM IN DIET FOR 18 MO (STUDY DURATION: 18 MO), Dose: 0, 625, 1250, 2500 PPM IN DIET FOR 18 MO (STUDY DURATION: 18 MO), Tumor Site: Type of Lesion: LIVER: ADENOMA, CARCINOMA, STOMACH: PAPILLOMA) “active; positive”; (Species: MOUSE, Strain/Sex: CR-CD-1/FEMALE, Route: ORAL, Dose: 0, 7.5, 4.5, 270 PPM IN DIET FOR 24 MO (STUDY DURATION: 24 MO), Dose: 0, 7.5, 4.5, 270 PPM IN DIET FOR 24 MO (STUDY DURATION: 24 MO), Tumor Site: Type of Lesion: LIVER: ADENOMA OR CARCINOMA) “active; positive”; (Species: MOUSE, Strain/Sex: CR-CD-1/MALE, Route: ORAL, Dose: 0, 7.5, 4.5, 270 PPM IN DIET FOR 24 MO (STUDY DURATION: 24 MO), Dose: 0, 7.5, 4.5, 270 PPM IN DIET FOR 24 MO (STUDY DURATION: 24 MO), Tumor Site: Type of Lesion: LIVER: ADENOMA OR CARCINOMA) “active; positive”; (Species: RAT, Strain/Sex: F344/MALE, FEMALE, Route: ORAL, Dose: 0, 25, 150, 500, 2500, 5000 PPM IN DIET FOR 2 YR (STUDY DURATION: 2 YR), Dose: 0, 25, 150, 500, 2500, 5000 PPM IN DIET FOR 2 YR (STUDY DURATION: 2 YR)) “inactive; negative”.
Consider `CCCCC(CC)COC(=O)c1ccc(C(=O)OCC(CC)CCCC)cc1` (stereo not given), for which the carcinogen call is, setting by setting: (Species: Rat, Strain/Sex: Fischer 344/Female, Route: Oral, Dose: 0, 1500, 6000, 12,000 ppm in diet for 104 wk (average daily dose 0, 102, 418, 901 mg/kg/day), Dose: 0, 1500, 6000, 12,000 ppm in diet for 104 wk (average daily dose 0, 102, 418, 901 mg/kg/day)) “inactive; negative”; (Species: Rat, Strain/Sex: Fischer 344/Male, Route: Oral, Dose: 0, 1500, 6000, 12,000 ppm in diet for 104 wk (average daily dose 0, 79, 324, 666 mg/kg/day), Dose: 0, 1500, 6000, 12,000 ppm in diet for 104 wk (average daily dose 0, 79, 324, 666 mg/kg/day)) “inactive; negative”.
With `N#CCCC(Br)(C#N)CBr` (stereo not given), the carcinogen call (Species: Mouse, Strain/Sex: B6C3F1/Female (50/Group), Route: Dermal, Dose: 0, 0.6, 2, 6 mg/kg in 95% ethanol on clipped area of skin 5 d/wk for 2 yr, Dose: 0, 0.6, 2, 6 mg/kg in 95% ethanol on clipped area of skin 5 d/wk for 2 yr) was “inactive; negative”; the carcinogen call (Species: Mouse, Strain/Sex: B6C3F1/Male (50/Group), Route: Dermal, Dose: 0, 0.6, 2, 6 mg/kg in 95% ethanol on clipped area of skin 5 d/wk for 2 yr, Dose: 0, 0.6, 2, 6 mg/kg in 95% ethanol on clipped area of skin 5 d/wk for 2 yr) was “inactive; negative”; the carcinogen call (Species: Rat, Strain/Sex: F344/N / Female (50/Group), Route: Dermal, Dose: 0, 2, 6, 18 mg/kg in 95% ethanol on clipped area of skin 5 d/wk for 2 yr, Dose: 0, 2, 6, 18 mg/kg in 95% ethanol on clipped area of skin 5 d/wk for 2 yr) was “inactive; negative”; the carcinogen call (Species: Rat, Strain/Sex: F344/N / Male (50/Group), Route: Dermal, Dose: 0, 2, 6, 18 mg/kg in 95% ethanol on clipped area of skin 5 d/wk for 2 yr, Dose: 0, 2, 6, 18 mg/kg in 95% ethanol on clipped area of skin 5 d/wk for 2 yr) was “inactive; negative”.
For the compound `[Ni+2].[OH-].[OH-]`, the carcinogen call (Species: RAT, Strain/Sex: WISTAR, Route: INTRAMUSCULAR IMPLANT, Tumor Site: Type of Lesion: IMPLANT SITE) is “active; positive”.
On to `COP(=O)(NC(C)=O)SC` (stereo not given), for which the carcinogen call is, setting by setting: (Species: Mouse, Strain/Sex: CD-1/Female, Route: Oral, Dose: 0, 50, 250, 1000 ppm (0; 8; 42; 167 mg/kg/d) in feed for 104 wk, Dose: 0, 50, 250, 1000 ppm (0; 8; 42; 167 mg/kg/d) in feed for 104 wk, Tumor Site: Type of Lesion: Liver: Hepatocellular carcinoma and adenoma (highest dose only)) “inactive; negative; purity = 92.7, 92.1%”; (Species: Mouse, Strain/Sex: CD-1/Male, Route: Oral, Dose: 0, 50, 250, 1000 ppm (0; 7; 36; 146 mg/kg/d) in feed for 104 wk, Dose: 0, 50, 250, 1000 ppm (0; 7; 36; 146 mg/kg/d) in feed for 104 wk) “inactive; negative; purity = 92.7, 92.1%”.
Turning to `Cc1ccc2cc3c(ccc4ccccc43)c3c2c1CC3OS(=O)(=O)O` (stereo not given), under “Species: RAT, Strain/Sex: SPRAGUE-DAWLEY/FEMALE, Route: SUBCUTANEOUS, Dose: 0, 0.2 UMOL IN 0.1 ML SESAME OIL: DMSO (9:1) 3/WK FOR 20 DOSES (STUDY DURATION: 52 WK), Tumor Site: Type of Lesion: INJECTION SITE: SARCOMA”, the carcinogen call is “active; positive”.
